Results reported in ChEMBL document CHEMBL4425172, “Chemical synthesis, pharmacological evaluation and in silico analysis of new 2,3,3a,4,5,6-hexahydrocyclopenta[c]pyrazole derivatives as potential anti-mitotic agents” (Bioorg Med Chem Lett, 2016).
Calls of active or inactive are those of the source. No cut-off for these calls is given here.

Tests used:
MDA-MB-231 = assay: Antiproliferative activity against human MDA-MB-231 cells assessed as reduction in cell viability measured after 72 hrs by MTS assay; format: functional, cell-based
MDA-MB-468 = assay: Antiproliferative activity against human MDA-MB-468 cells assessed as reduction in cell viability measured after 72 hrs by MTS assay; format: functional, cell-based
T47D = assay: Antiproliferative activity against human T47D cells assessed as reduction in cell viability measured after 72 hrs by MTS assay; format: functional, cell-based
MCF7 = assay: Antiproliferative activity against human MCF7 cells assessed as reduction in cell viability measured after 72 hrs by MTS assay; format: functional, cell-based
A549 = assay: Antiproliferative activity against human A549 cells assessed as reduction in cell viability measured after 72 hrs by MTS assay; format: functional, cell-based
[1] = Binding affinity to goat tubulin by double reciprocal plot analysis; design: species or system Capra hircus
Capra hircus [2] = species on record: Capra hircus; assay: Binding affinity to goat tubulin assessed as increase in tubulin-colchicine fluorescence preincubated for 30 mins followed by colchicine addition measured after 60 mins by tryptophan fluorescence quenching assay
Capra hircus [3] = species on record: Capra hircus; assay: Binding affinity to goat tubulin by tryptophan fluorescence quenching assay
[4] = Homo sapiens, MCF7, 72 h, read-out: IC50
[5] = Homo sapiens, MDA-MB-231, 72 h, read-out: IC50
[6] = Homo sapiens, MDA-MB-468, 72 h, read-out: IC50
[7] = Homo sapiens, T47D, 72 h, read-out: IC50
[8] = Homo sapiens, A549, 72 h, read-out: IC50

| IC50 (MDA-MB-231; mda-mb-231) | IC50 (MDA-MB-468; mda-mb-468) | IC50 (T47D; t47d) | IC50 (MCF7; [4]) [µM] | IC50 (A549; a549) | IC50 (MDA-MB-231; [5]) [µM] | IC50 (MDA-MB-468; [6]) [µM] | IC50 (T47D; [7]) [µM] | IC50 (A549; [8]) [µM] | Kd [1] [µM] | Activity (Capra hircus [2]) | Activity (Capra hircus [3]) | IC50 (MCF7; mcf7) | SMILES |
| --- | --- | --- | --- | --- | --- | --- | --- | --- | --- | --- | --- | --- | --- |
| Not Active | Not Active | Not Active | 178 | Not Active | – | – | – | – | – | – | – | – | COc1ccc(C2C3CCCC3=NN2S(=O)(=O)c2ccc(C)cc2)cc1 (centres undefined) |
| – | – | – | 51.3 | – | 25.1 | 10.2 | 29.5 | 47.9 | – | – | – | – | Clc1ccc(C2NN=C3CCCC32)cc1 (centres undefined) |
| – | – | – | 15.8 | – | 8.7 | 1 | 0.8 | 19.1 | 85 | Dose-dependent effect | – | – | COc1ccc(C2C3CCCC3=NN2S(C)(=O)=O)cc1 (centres undefined) |
| – | – | – | 50.1 | – | 1.1 | 3.8 | 3.3 | 5.8 | – | – | Active | – | Cc1ccc(S(=O)(=O)N2N=C3CCCC3C2c2ccc(F)cc2)cc1 (centres undefined) |
| – | – | – | – | Not Active | 144 | 186 | 129 | – | – | – | – | Not Active | CC(C)c1ccc(C2NN=C3CCCC32)cc1 (centres undefined) |
| Not Active | – | Not Active | – | Not Active | – | 28.2 | – | – | – | – | – | Not Active | CC(C)c1ccc(C2C3CCCC3=NN2S(=O)(=O)c2ccc([N+](=O)[O-])cc2)cc1 (centres undefined) |
| – | – | Not Active | 75.9 | – | 51.3 | 70.8 | – | 81.3 | 127 | Dose-dependent effect | – | – | CS(=O)(=O)N1N=C2CCCC2C1c1ccc(F)cc1 (centres undefined) |
| – | – | Not Active | – | Not Active | 42.7 | 43.7 | – | – | – | – | – | Not Active | O=[N+]([O-])c1ccc(S(=O)(=O)N2N=C3CCCC3C2c2ccc(Cl)cc2)cc1 (centres undefined) |
| Not Active | – | Not Active | 24 | – | – | 20 | – | 44.7 | – | – | – | – | COc1ccc(C2NN=C3CCCC32)cc1 (centres undefined) |
| – | – | – | – | Not Active | 15.5 | 7.9 | 40.7 | – | – | – | – | Not Active | Cc1ccc(S(=O)(=O)N2N=C3CCCC3C2c2ccc(C(C)C)cc2)cc1 (centres undefined) |
| Not Active | – | Not Active | – | Not Active | – | 120 | – | – | – | – | – | Not Active | CC(C)c1ccc(C2C3CCCC3=NN2S(C)(=O)=O)cc1 (centres undefined) |
| – | – | – | 0.1 | – | 0.1 | 0.2 | 0.2 | – | – | – | – | – | CC(=O)O[C@H]1C(=O)[C@@]2(C)[C@H]([C@H](OC(=O)c3ccccc3)[C@]3(O)C[C@H](OC(=O)[C@H](O)[C@@H](NC(=O)c4ccccc4)c4ccccc4)C(C)=C1C3(C)C)[C@]1(OC(C)=O)CO[C@@H]1C[C@@H]2O [PACLITAXEL] |
| – | – | – | 38 | – | 30.9 | 14.8 | 37.2 | 30.9 | – | – | – | – | Fc1ccc(C2NN=C3CCCC32)cc1 (centres undefined) |
| – | Not Active | – | – | Not Active | 9.3 | – | 89.1 | – | – | – | – | Not Active | O=S(=O)(c1ccc(Cl)cc1)N1N=C2CCCC2C1c1ccc(F)cc1 (centres undefined) |
| Not Active | – | Not Active | – | Not Active | – | 15.5 | – | – | – | – | – | Not Active | CC(C)c1ccc(C2C3CCCC3=NN2S(=O)(=O)c2ccc(Cl)cc2)cc1 (centres undefined) |
| Not Active | Not Active | Not Active | 151 | Not Active | – | – | – | – | – | – | – | – | COc1ccc(C2C3CCCC3=NN2S(=O)(=O)c2ccc([N+](=O)[O-])cc2)cc1 (centres undefined) |
